This is an account of results in US7569594B2, “Analogs of leucascandrolide A” (The University of Chicago, priority 2005, dated 2009).

Each structure is given as a SMILES string.

In experiment [1] the test system is A549, PC3 and HCT116 cells. As to the kind of experiment: Cell Growth/Viability Assays (CellTiter-Glo). It is filed as cell-based. The following applies: Homo sapiens; 48 h incubation; cancer cells. Here is the method:
Cell Growth/Viability Assays. All assays were performed using at least three replicate wells for each compound concentration tested. Cells were seeded in 96-well white plates at the density of 1000 cells/well in 100 μL of the appropriate cell culture media. Adherent A549, PC3 and HCT116 cells were allowed to attach and grow for 24 h and then treated with 30 μL of the solution of a compound and incubated further for 48 h. After incubation, cell viability was determined using a luminescence-based commercial kit (CellTiter-Glo, Promega) and luminescence was analyzed using a Wallac Victor III plate reader. Compound concentration that gave 50% reduction in cell viability when compared with untreated control cells was calculated from sigmoidal plots of cell viability versus drug concentration. To measure cell growth inhibition, similar viability assays were performed twice: at 0 h and after 48 h incubation. And then change in number of viable cells was measured and calculated from sigmoidal plots.
Biological Activity—Using methods similar to that described above, the following compounds were tested.
(In general: Cellular ATP, detected with luciferase, serves as a proxy for viable cell number.)

The subject of another experiment is Yeast. Nature of the experiment: Yeast activity. It is filed as cell-based.
Experiment [2] concerns human A549 non-small lung caner cells. The following applies: cited from earlier work.
Experiment [3] concerns W303 strain of yeast S. cerevisiae. Particulars: 11.2 mg per disk; cited from earlier work.
The subject of experiment [4] is HCT-116 colon cancer cells. The following applies: HCT-116 cells; cited from earlier work.

What is called GI50 is the concentration at which growth is held to half of that of the control. As for `COC(=O)NC/C=C\c1nc(CC/C=C\C(=O)O[C@@H]2CC3CC(=O)O[C@H](/C=C/CC(C)C)CC4CCCC(C[C@H](OC)CC(C2)O3)O4)co1` (some centres unmarked), the GI50 in experiment [1] was 10 to 100 nM. In the experiment on Yeast, the “Yeast: Active/Inactive” value is “Yeast: Active”.

Compound `COC(=O)NC/C=C\c1nc(CC/C=C\C(=O)O[C@H]2CC3CC(=O)O[C@@H](CCCC(C)C)CC4CCCC(C[C@@H](OC)CC(C2)O3)O4)co1` (mixture of isomers) [racemic JJ-2-96] gave a 50% growth inhibitory concentration (GI50) in experiment [1] of 1 to 10 nM. The “Yeast: Active/Inactive” value with Yeast is “Yeast: Active”.

Compound `CCCCC[C@H]1CC2CCCC(C[C@@H](OC)CC3C[C@@H](OC(=O)/C=C\CCc4coc(/C=C\CNC(=O)OC)n4)CC(CC(=O)O1)O3)O2` (mixture of isomers) [racemic JJ-2-173] gave a 50% growth inhibitory concentration (GI50) in experiment [1] of 1 to 10 nM. Further, the “Yeast: Active/Inactive” value in the experiment with Yeast is listed as “Yeast: Active”.

In experiment [1], `COC(=O)NC/C=C\c1nc(CC/C=C\C(=O)O[C@H]2CC3CC(=O)O[C@@H](CCCCCO)CC4CCCC(C[C@@H](OC)CC(C2)O3)O4)co1` (mixture of isomers) [racemic JJ-2-194] registered a 50% growth inhibitory concentration (GI50) of 10 to 100 nM. Also, the “Yeast: Active/Inactive” value with Yeast is listed as “Yeast: Inactive”.

In experiment [1], `C#CCCCCCCCC[C@H]1CC2CCCC(C[C@@H](OC)CC3C[C@@H](OC(=O)/C=C\CCc4coc(/C=C\CNC(=O)OC)n4)CC(CC(=O)O1)O3)O2` (mixture of isomers) [racemic JJ-2-286] showed a concentration for 50% growth inhibition (GI50) of 1 to 10 nM. The “Yeast: Active/Inactive” value with Yeast is on record as “Yeast: Active”.

Regarding `COC(=O)NC/C=C\c1nc(CC/C=C\C(=O)O[C@H]2CC3CC(=O)O[C@@H](CCCCCCCCc4cn(CCCNC(=O)OC(C)(C)C)nn4)CC4CCCC(C[C@@H](OC)CC(C2)O3)O4)co1` (mixture of isomers) [racemic JJ-2-288], the GI50 in experiment [1] was 10 to 100 nM. For the same compound, the “Yeast: Active/Inactive” value with Yeast was “Yeast: Active”.

Compound `COC(=O)NC/C=C\c1nc(CC/C=C\C(=O)O[C@H]2CC3CC(=O)O[C@@H](/C=C/CC(C)C)CC4CCCC(C[C@@H](OC)CC(C2)O3)O4)co1` (single isomer, unassigned; (+)) [(+)-JJ-2-37] had a concentration for 50% growth inhibition (GI50) in experiment [1] of 1 to 10 nM. The “Yeast: Active/Inactive” value in the experiment on Yeast is on record as “Yeas: Active”.

On to `COC(=O)NC/C=C\c1nc(CC/C=C\C(=O)OC2CC3CC(=O)O[C@H](/C=C/CC(C)C)C[C@H]4CCC(C)C(C[C@H](OC)CC(C2)O3)O4)co1` (some centres unmarked) [Leucascandrolide A], for which the concentration for 50% growth inhibition (GI50) was 0.93 nM in experiment [2] and 0.87 nM in experiment [4]. In addition, the “inhibition diameter per disk” value in experiment [3] was 33 mm.
